# From patent US10357556B2, “Methods and compositions for T cell generation and uses thereof” (priority 2016, dated 2019)
# Tests used:
# [1] = tested on: CD4+CD25- responder effector T cells (Teff); assay: In vitro T cell suppression assay; type: cell-based, mouse; conditions: Tregs from co-cultures with Atg16L1ΔCD11c BMDCs
# Protocol: CD4^+CD25^+ Treg cells were purified from in vitro BMDC-T cell co-cultures using magnetic microbeads (Miltenyi). CD4^+CD25^− responder effector T cells (Teff) were isolated from mouse spleens, labeled with 2.5 μM CFSE for 10 min at 37° C. in the dark, washed, and incubated with Treg cells at various Treg:Teff ratios in the presence of 1 μg/ml anti-mouse CD3 (eBiosciences). Irradiated CD4-depleted mouse splenocytes served as antigen-presenting cells. Cultures were incubated for 48 and 72 hrs, cells were stained with specific antibodies and a viability dye, and analyzed by flow cytometry. Dilution of CFSE signal is a measure of proliferation, and inhibition of proliferation a measure of Treg activity.
# [2] = tested on: CD4+Foxp3+ regulatory T cells (Tregs); assay: In vitro DC-T cell co-culture: pulsed BMDCs co-cultured with CD4+ T cells; type: cell-based, mouse
# Protocol: Co-culture of bone marrow-derived dendritic cells (BMDCs) and CD4^+ T cells were performed as previously described (30, 32, 36). Briefly, BMDCs were generated from bone marrow progenitor cells isolated from femurs of WT or Atg16L1^ΔCD11c mice in the presence of 20 ng/ml GM-CSF (Miltenyi) in complete RPMI media 1640 (10% fetal bovine serum, 50 U/ml penicillin, 50 μg/ml streptomycin, 2 mM L-glutamine, 1 mM sodium pyruvate, 1 mM HEPES, and non-essential amino acids, and β-mercaptoethanol). BMDCs were pulsed with PBS, WT-OMVs (10 μg/ml), ΔPSA-OMVs (10 μg/ml) or pure PSA (50 μg/ml) for 18-22 hrs; OMVs with a protein content of 10 μg contain 50 μg of PSA. […]
# (§1) Cells were incubated in 5% mouse serum for 15 min and stained for 20 min at 4° C. with either LIVE/DEAD fixable green or far red dead stain kit (Life Technologies), with empirically titrated concentrations of the following antibodies: PerCP-Cy5.5-conjugated anti-mouse CD4 (clone: RM4-5), PerCP-Cy5.5-conjugated anti-human CD4 (clone: OKT4), and/or PE-Cy7-conjugated anti-mouse CD4 (clone: RM4-5). […] Cell acquisition was performed on a BD FACS Calibur (BD Biosciences) or Miltenyi MACSQuant (Miltenyi), and data was analyzed using FlowJo software suite (TreeStar). For ELISAs, cell supernatant from in vitro DC-T cell co-culture were collected and mouse IL-10 and IL-17A were measured using commercially available kits (eBiosciences).
# [3] = tested on: LC3-associated phagocytosis (LAP); assay: LC3-GFP accumulation in BMDCs (LAP activation); type: cell-based, mouse; conditions: Rubicon+/- BMDCs
# Protocol: Quantification of LC3-GFP accumulation upon 2 h treatment of BMDCs with PBS, B. fragilis WT-OMV, ΔPSA-OMV or purified PSA in Rubicon^+/− or Rubicon^−/− DCs. Error bars represent S.E.M. **** p<0.0001. Data are representative of 3 independent experiments.
# CD4+Foxp3+ Tregs = assay: Human MoDC - syngeneic CD4+ T cell co-culture; type: cell-based; conditions: cells from most subjects, regardless of genotype
# Protocol: To generate monocyte-derived dendritic cell (MoDCs), human PBMCs were isolated from fresh whole blood the same day of harvest using Ficoll-Hypaque (GE Healthcare) gradient (density=1.070 g/ml), followed by monocyte enrichment using the Human Monocyte Isolation Kit II (Miltenyi). For differentiation into MoDCs, monocytes were incubated with recombinant human IL-4 and GM-CSF (Peprotech) every two days in complete RPMI 1640 (5% human AB serum, 50 U/ml penicillin, 50 μg/ml streptomycin, 2 mM L-glutamine, 1 mM sodium pyruvate, 1 mM HEPES, non-essential amino acids, […]). […]
# as §1
substance,measurement,setting,value
Polysaccharide A [PSA],Treg suppressive activity,[1],does not require ATG16L1 to promote suppressive Treg activity
same,IL-10 production,[2]; ATG16L1-deficient (Atg16L1ΔCD11c) DCs,does not require ATG16L1 for its activity
same,IL-10 production among CD4+Foxp3- type 1 regulatory T cells,[2]; WT or Atg16L1ΔCD11c DCs,Neither WT-OMVs nor pure PSA have any effect
same,Accumulation of membrane-bound LC3-GFP (LC3-II) / LAP activation,[3],neither APSA-OMVs nor purified PSA are able to activate LAP
same,Response (IL-10 among CD4+Foxp3+ Tregs),CD4+Foxp3+ Tregs,respond to purified PSA
